According to PubChem BioAssay (NCI):
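Each compound was tested at five concentrations against cells in 96-well plates for 48 hours. TGI: concentration producing complete growth inhibition.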

How the values were obtained:
Assay in all cases: NCI tumour cell line growth inhibition, 48 h
786-0 renal = system: 786-0 renal
A498 renal = system: A498 renal
CCRF-CEM leukemia = system: CCRF-CEM leukemia
COLO 205 colon = system: COLO 205 colon
EKVX NSCLC = system: EKVX NSCLC
HCC-2998 colon = system: HCC-2998 colon
HL-60(TB) leukemia = system: HL-60(TB) leukemia
HOP-92 NSCLC = system: HOP-92 NSCLC
IGROV1 ovarian = system: IGROV1 ovarian
M14 melanoma = system: M14 melanoma
NCI-H226 lung = system: NCI-H226 lung
NCI-H23 lung = system: NCI-H23 lung
OVCAR-3 ovarian = system: OVCAR-3 ovarian
OVCAR-8 ovarian = system: OVCAR-8 ovarian
SF-295 CNS = system: SF-295 CNS
SN12C renal = system: SN12C renal
SNB-19 CNS = system: SNB-19 CNS
SNB-75 CNS = system: SNB-75 CNS
U251 CNS = system: U251 CNS
UACC-62 melanoma = system: UACC-62 melanoma

SMILES	TGI (786-0 renal)	TGI (A498 renal)	TGI (CCRF-CEM leukemia)	TGI (COLO 205 colon)	TGI (EKVX NSCLC)	TGI (HCC-2998 colon)	TGI (HL-60(TB) leukemia)	TGI (HOP-92 NSCLC)	TGI (IGROV1 ovarian)	TGI (M14 melanoma)	TGI (NCI-H226 lung)	TGI (NCI-H23 lung)	TGI (OVCAR-3 ovarian)	TGI (OVCAR-8 ovarian)	TGI (SF-295 CNS)	TGI (SN12C renal)	TGI (SNB-19 CNS)	TGI (SNB-75 CNS)	TGI (U251 CNS)	TGI (UACC-62 melanoma)
CCOC(=O)[C@@H](NC(=O)OC(C)(C)C)[C@@H](O)C(=O)OCC	> 100 µM	> 100 µM	> 100 µM	> 100 µM	> 100 µM	> 100 µM	> 100 µM	> 100 µM	> 100 µM	> 100 µM	> 100 µM	> 100 µM	> 100 µM	> 100 µM	> 100 µM	> 100 µM	> 100 µM	> 100 µM	> 100 µM	> 100 µM
Cc1nc(-n2nc(-c3ccccc3)cc2-c2ccccc2)sc1C(=O)/C=C/c1ccc([N+](=O)[O-])cc1	29.8 µM	> 65.8 µM	48.1 µM	> 80.6 µM	> 100 µM	38.1 µM	55.9 µM	> 85.7 µM	> 100 µM	94.7 µM	> 100 µM	> 54.9 µM	45.3 µM	> 31.6 µM	> 100 µM	> 76.4 µM	> 100 µM	> 67 µM	> 47.6 µM	> 53.9 µM
COc1ccc2nc3cc([N+](=O)[O-])ccc3c(Nc3ccc(S(=O)(=O)Nc4ncccn4)cc3)c2c1	> 100 µM	> 81.3 µM	> 100 µM	> 100 µM	> 100 µM	> 100 µM	> 100 µM	> 100 µM	> 100 µM	> 100 µM	> 100 µM	> 23.2 µM	> 100 µM	> 100 µM	> 100 µM	> 100 µM	> 53.6 µM	> 100 µM	> 100 µM	> 100 µM
CC(C)(C)OC(=O)N1CC(C)(C)N2C(=O)C3(CCCO3)C12 (stereo not given)	> 100 µM	> 100 µM	> 100 µM	> 100 µM	> 100 µM	> 100 µM	> 100 µM	> 100 µM	> 100 µM	> 100 µM	> 100 µM	> 100 µM	> 100 µM	> 100 µM	> 100 µM	> 100 µM	> 100 µM	> 100 µM	> 100 µM	> 100 µM
N#Cc1ccccc1NC(=O)C(=O)C(C(=O)c1ccncc1)C1OC(=O)c2ccccc21 (stereo not given)	> 100 µM	> 100 µM	> 100 µM	> 100 µM	> 100 µM	> 100 µM	> 100 µM	> 100 µM	> 100 µM	> 100 µM	> 100 µM	> 100 µM	> 100 µM	> 100 µM	> 100 µM	> 100 µM	> 100 µM	> 100 µM	> 100 µM	> 100 µM
Cc1oc2nc(N(C)C)nc(NN)c2c1C	> 100 µM	> 100 µM	> 100 µM	> 100 µM	> 100 µM	> 100 µM	> 100 µM	> 100 µM	> 100 µM	> 100 µM	> 100 µM	> 100 µM	> 100 µM	> 100 µM	> 100 µM	> 100 µM	> 100 µM	> 100 µM	> 100 µM	> 100 µM
CSc1nc(-c2ccccc2)nc(C(C#N)C#N)n1	> 100 µM	> 100 µM	> 100 µM	> 100 µM	> 100 µM	> 100 µM	> 100 µM	> 100 µM	> 100 µM	> 100 µM	> 100 µM	> 100 µM	> 100 µM	> 100 µM	> 100 µM	> 100 µM	> 100 µM	> 100 µM	> 100 µM	> 100 µM
CC(C)c1cccc(C(C)C)c1NC(=O)C(=O)C1CCC2=C(Sc3ccccc3N2)C1=O (stereo not given)	> 100 µM	> 100 µM	> 100 µM	79.7 µM	> 100 µM	> 100 µM	> 100 µM	> 100 µM	> 100 µM	> 100 µM	> 100 µM	> 100 µM	> 100 µM	> 100 µM	> 100 µM	> 100 µM	> 100 µM	> 100 µM	> 100 µM	> 100 µM
c1cc(C2=NCCO2)c2ccsc2c1	> 100 µM	> 100 µM	> 100 µM	> 100 µM	> 100 µM	> 100 µM	> 100 µM	> 100 µM	> 100 µM	> 100 µM	> 100 µM	> 100 µM	> 100 µM	> 100 µM	> 100 µM	> 100 µM	> 100 µM	99.1 µM	> 100 µM	> 100 µM
Cc1c(C(=O)Nc2ccccc2)nnn1-c1ccnc2cc(C(F)(F)F)ccc12	> 100 µM	> 100 µM	81.5 µM	> 100 µM	> 100 µM	> 100 µM	77.7 µM	95.4 µM	> 100 µM	> 100 µM	> 100 µM	> 100 µM	> 100 µM	> 100 µM	> 100 µM	> 100 µM	> 100 µM	> 100 µM	> 100 µM	> 100 µM
CCc1cccc(C(C)CC)c1NC(=O)C(=O)Cc1nc2ccccc2o1 (stereo not given)	> 50 µM	> 50 µM	> 50 µM	> 50 µM	> 50 µM	> 50 µM	> 50 µM	> 50 µM	> 50 µM	> 50 µM	> 50 µM	> 50 µM	> 50 µM	> 50 µM	> 50 µM	> 50 µM	> 50 µM	> 50 µM	> 50 µM	> 50 µM
